In patent US8785430B2, “Compound that can inhibit UBC13-UEV interactions, pharmaceutical compositions and therapeutic uses” (Consejo Superior de Investigaciones Cientificas, priority 2006, dated 2014):

Experiments:
UBC13-UEV1 interaction = target: T1, UBC13-UEV1 interaction (Homo sapiens, UniProt P61088); assay: Two-hybrid assay in yeasts for the UBC13-UEV1 interaction (β-galactosidase); type: cell-based; details: read-out: inhibition of the interaction between UBC13 and UEV1
T1 construct: expressed in transfected cells; host or cells: Saccharomyces cerevisiae strain AH109
T1 sequence (P61088 1-152): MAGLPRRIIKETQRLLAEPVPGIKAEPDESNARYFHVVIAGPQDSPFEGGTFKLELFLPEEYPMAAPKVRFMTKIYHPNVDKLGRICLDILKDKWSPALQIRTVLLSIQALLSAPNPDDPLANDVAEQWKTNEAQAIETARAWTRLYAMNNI
Source text: The interaction between UBC13 and UEV1 is detected by means of two-hybrid assays in yeast. The protein forms of UBC13 and UEV1 used in the following examples are of Homo sapiens. The UBC13 protein, also referred to as UBE2N (HUGO nomenclature) has the following identifiers: NCBI-GI: 4507793, UniProt: P61088 and [EC:6.3.2.19]. The UEV1 protein, also referred to as UBE2V1 (HUGO nomenclature), has the following identifiers: NCBI-GI: 73765546 and UniProt: {tilde under (O)}13404. In this assay, UBC13 is expressed as a fusion protein with the Gal4 DNA-binding domain (DBD-UBC13) from the plasmid pBD-UBC13, and UEV1 is expressed as a fusion protein with the Gal4 transcriptional activation domain (AD-UEV1) from the plasmid pACT2-UEV1. Both plasmids are cotransfected in the Saccharomyces cerevisiae strain AH109, being grown on plates with […] without leucine or tryptophan, selecting only the colonies expressing […] for these two amino acids, i.e., those containing the two co-transfected plasmids. […]

[1] = system: transcriptional activity of NF-κB induced by TNFα; assay: NF-κB luciferase reporter assay, stimulation by TNFα in HeLa cells; type: cell-based; details: TNFα 10 ng/mL; for inhibition of the stimulation of the transcriptional activity of NF-κB induced by TNFα: HeLa cells, different concentrations
Description: To determine the activity of compounds Ia and Ib on the stimulation of the NFκ-B activity by TNFα, assays for inducing luciferase activity (determined with the Dual-Luciferase Reporter Assay System kit, Promega, catalog number E1910) generated by expression of the firefly (Photinus pyralis) luciferase gene directed by a promoter containing three recognition sites for NFκ-B were performed. To that end, HeLa cells were co-transfected with plasmid pRL-TK, encoding the Renilla reniformis Luciferase and being a transfection efficiency control, and plasmid prLUC, a plasmid which allows determining the transcriptional activity of NF-κB, using Fugene (Roche) as a transfection vehicle. 100,000 cells were seeded in 6-well plates (Costar). On the following day, the transfection complex was formed with 0.5 μg of each plasmid and 3 μl of Fugene for 15 minutes. The complex was added to the cells in Optimem medium (InVitrogen), and after 5 hours it was changed to complete medium (Dulbecco's Modified Eagle's Medium with 10% fetal bovine serum, 2 mM of glutamine, supplemented with penicillin and streptomycin), to which the compound Varubin (Ia) or Ib at different concentrations was added or not. On the following day, the cells were incubated with TNFα (10 ng/mL) for 4 hours, after which they were washed with phosphate buffered saline (PBS) and lysated with 250 μL of lysis buffer, following the manufacturer's (Promega) indications. 100 μL of luciferase reagent (LARII) were added to the lysate to measure the firefly luciferase activity, after which the reaction was stopped with 100 μL of stop buffer with Renilla reniformis luciferase substrate, this second activity being determined at that time. The firefly luciferase activity was standardized in relation to the Renilla luciferase activity. The values corresponding to cells transfected but not stimulated with TNFα were used as standardizers for the remaining experimental values. […]

Row | Structure (SMILES) | inhibition at 100 µM (UBC13-UEV1 interaction) [%] | inhibition of the stimulation of the transcriptional activity of NF-κB induced by TNFα [1] | inhibition at 100 µM ([1]; Homo sapiens, HeLa cells pre-incubated at 100 μM, read-out: inhibition of the activation of NF-κB by TNFα) [%]
1 | NC(=O)CN(CCc1ccccn1)C(=O)C1CC(=O)N(CCc2ccc(F)cc2)CC(=O)N1CCc1ccc(F)cc1 (centres unmarked) [Ia, N-aminocarbamoylmethyl-N-(2′-(2″pyridyl)ethyl)-1,4-bis[2′-(4″-fluorophenyl)ethyl]-3,7-dioxo-[1,4]diazepane-5-carboxamide] | ~60 | inhibits in a dose-dependent manner | ~50
2 | NC(=O)CN(CCc1ccccn1)C(=O)CC1C(=O)N(CCc2ccc(F)cc2)CC(=O)N1CCc1ccc(F)cc1 (centres unmarked) [Ib, 1,4-bis[2′-(4″-fluorophenyl)ethyl]-2-[N-aminocarbonylmethyl-N-(2′-(2″-pyridyl)ethyl)-carbonylmethyl]piperazine-3,6-dione] | ~40 | inhibits in a dose-dependent manner | 
